SMILES	melting point [°C]
CCCCCCC=NO	57.5
COc1cc(CC#N)cc(OC)c1OC	77
N#Cc1cc(F)c(N)cc1F	95 to 97
CC1CN2CC(=O)Nc3ccc(Cl)cc3C2(c2ccccc2)O1 (stereo unspecified)	186
CC1(C)CC1	-109
ON=C1CCCCCN1	168 to 170
CC(C)N1C(=O)c2ccccc2NS1(=O)=O	140
Cn1cnc2ncnc-2c1N	300
O=C1NC(=S)NC(=O)C1=NNc1ccccc1[N+](=O)[O-]	330
Nc1ccccc1C(=O)OCc1ccccc1	76 to 78
C/C(=N\NC(N)=O)C1=CC[C@]2(C)C3CCC4=C(CCC4(C)C)C3CC[C@H]2C1 (stereo partly specified)	239
CCCCCCCCC=CCCCCCCCC(=O)OCC(O)CO (stereo unspecified)	35
Cc1cnc2c(C(=O)O)c(Cl)ccc2c1	253
O=C(O)c1cccc(OOCl)c1	92
Cc1ccc(C(=O)CBr)c(C)c1	44
CC(C)Nc1nc(N)nc(Cl)n1	133
Fc1cc2c(cc1F)Oc1cc(Cl)c(Cl)cc1O2	223
C=CCCCCCCC(=O)O	5
CC(NC(=O)CCCCNC(=O)C12CC3CC(CC(C3)C1)C2)C(=O)NC(CCC(=O)O)C(N)=O (stereo unspecified)	200
COc1cc(N)c(C(=O)O)cc1OC	155 to 160
CS(=O)(=O)c1cc(C(F)(F)F)ccc1C(=O)c1cnoc1C1CC1	140
COc1cc(C(=O)O)cc(Cl)n1	214 to 216
CC1C(=O)C23C(O)CC4C(C)(C)CC(O)CC4(C)C2CCC1C3O (stereo unspecified)	377
CC=C(OC)C(=O)O	58
CCCC(=O)N(C)C	-40
COc1ccc(Cl)c(N)c1	27

SMILES	melting point [°C]
O=c1ccn(C2CCC(CO)O2)c(=O)[nH]1 (stereo unspecified)	128
CCc1cnc(C2=NC(C)(C(C)C)C(=O)N2)c(C(=O)O)c1 (stereo unspecified)	171
CCC(C=O)(CC)CCC#N	97
Nc1ncncn1	219 to 224
OC(Cn1cncn1)(c1ccc(F)cc1)c1ccccc1F (stereo unspecified)	130
CC(=O)c1ccc(C#N)s1	78
CN(N=Cc1ccc(F)cc1)P(=O)(N1CC1)N1CC1	106
CCF	-143
CC(=O)C(C(=O)OC1CC(C)CCC1C(C)C)C(C)C(C(C)=O)C(=O)OC1CC(C)CCC1C(C)C (stereo unspecified)	200
C[C@]12CC[C@H]3[C@@H](CCC4=CC(=O)CC[C@@]43C)[C@@H]1CC[C@@H]2C(=O)O	254
CCCCCC1=CCCC1	-83
ClC=CCl	-80
CCCCCCCCCCC(C)Br (stereo unspecified)	-96
COC(=O)C12C=CC(CC1)C1C(=O)OC(=O)C12 (stereo unspecified)	116 to 118
O=S(=O)(Cl)c1sccc1C1OCCO1	93 to 94
CC(=O)OCC1=C(C(=O)O)N2C(=O)C(N)C2SC1 (stereo unspecified)	300
O[C@H](C1CCCCC1)[C@H](O)C1CCCCC1	136 to 141
CC(C)(C)c1nnc(N)s1	183
CC1(C(=O)O)CCCC2(C)c3cc(O)ccc3CCC12 (stereo unspecified)	194
CN1CCCN=C1C=Cc1cccs1	178
CCc1cc2c(s1)N(C)C(=O)CN=C2c1ccccc1Cl	119
C#CCCCC#C	-85
CCCCCCCCCCCCCCCCCC(=O)OCCOC(=O)CCCCCCCCCCCCCCCCC	79
COc1cc2c(cc1OC)C(CO)NCC2 (stereo unspecified)	135 to 139
CC(=O)c1ccc(NC(=O)C(F)(F)C(F)(F)C(F)(F)C(F)(F)C(F)(F)C(F)(F)C(F)(F)C(F)(F)F)cc1	155

Results, then the compound that gave them:

melting point [°C]	SMILES
261	N#CC1=C(N)OC2=C(CCCC2)C1c1ccccc1 (stereo unspecified)
124	COC(=O)c1cc2cc3c(cc2cc1C(=O)OC)CC3
53 to 55	Ic1cccc(Cn2cncn2)c1
116 to 120	COc1cc(C)c2c(=O)c(-c3ccccc3)coc2c1
93 to 94	c1ccc(-c2nsc(N3CCNCC3)n2)cc1
190	Clc1ccc2c(c1)oc1c(Cl)c(Cl)cc(Cl)c12
66 to 67	OCc1ccc2nonc2c1
238	Clc1ccc(-c2nc3c4ccccc4ccn3n2)cc1
100	N#Cc1c(O)nsc1Nc1ccccc1Cl
256	O=C(Nc1ncc([N+](=O)[O-])s1)c1cccs1
131 to 134	NC(=NO)c1ccc(Cl)cc1
143	Cc1ccc(N2C(=O)C=CC2=O)cc1Cl
173 to 175	CC(C)(C)OC(=O)N1CCN(Cc2cccc(C(=O)O)c2)CC1
175	NC(=O)/C(=N\Nc1c(Cl)cccc1Cl)c1nc2ccccc2s1
232	O=[N+]([O-])c1ccc(Br)c2cccc(C=Nc3ccccc3)c12
171	CCC(=O)OCN1C(=O)NC(c2ccccc2)(c2ccccc2)C1=O
91.5	COc1c(OC)c(OC(C)=O)c2cc(Cl)ccc2c1OC(C)=O
162	O=C(NCO)NS(=O)(=O)c1ccc(NC(=O)c2ccccc2C(=O)O)cc1
230	Cc1cc(C(=O)O)c(C)n1-c1ccc(Cl)cc1
175 to 176	COc1ccc(C(N)=NO)c2ccccc12
34	CCCCN1C(=O)c2ccccc2C1=O
63 to 65	O=Cc1cccc(N2CCCC2)n1
208	O=C1OC(c2ccccc2)=NC1=Cc1ccc(-c2ccc([N+](=O)[O-])cc2)o1
182 to 189	Sc1ccncc1
184	CC(C)=CC(=O)NS(=O)(=O)c1ccc(N)cc1

melting point [°C]	SMILES
58	C[Si](C)(C)C#Cc1cccc(C#C[Si](C)(C)C)c1
74	O=C(O)CCCCc1ccc(F)cc1
202 to 203	CC(=O)Oc1ccccc1C1NC(=O)NC(C)=C1C(=O)OCc1ccccc1 (stereo unspecified)
48	c1ccc(Sc2ccc3ccccc3n2)cc1
63.5	Clc1ccc2cccc(Cl)c2c1
288	COC(=O)Nc1nc2ccc(C(=O)c3ccccc3)cc2[nH]1
34.5	Oc1ccccc1C1CCCC1
235	COc1cc(NS(C)(=O)=O)ccc1Nc1c2ccccc2nc2ccccc12
280	CC(C=Cc1ccc(C=CC(C)=NO)cc1)=NO
69	Fc1ccc(Br)cc1Br
164	CC(=NCc1ccccc1)c1c(O)c2ccccc2n(-c2ccccc2)c1=O
180	CN1c2ccccc2C(C)(C)C12C=Cc1cc([N+](=O)[O-])ccc1O2 (stereo unspecified)
94	O=C(Nc1ccccc1[N+](=O)[O-])C(F)(F)C(F)(F)C(F)(F)C(F)(F)C(F)(F)C(F)(F)C(F)(F)C(F)(F)F
145	O=C(NC1CCCCC1)c1ccccc1
42.5 to 44.5	Cn1ccc2cc(N=C=O)ccc21
174	[O-][P+](c1ccccc1)(c1ccccc1)C1C=C(c2ccccc2)C=C(c2ccccc2)S1 (stereo unspecified)
50 to 51	Brc1cccc(N2CCOCC2)n1
138	O=C(O)CCc1ccc(O)c(O)c1
105	Cc1ccc(NC(=O)CC(C)c2ccc(C)cc2)cc1 (stereo unspecified)
126	Cc1ccccc1N=Nc1c(N)ccc2ccccc12
171	Cc1ccc2cc3c(cc2n1)CCC(C)N3 (stereo unspecified)
122	COC(=O)c1cc(C(=O)OC)cc([N+](=O)[O-])c1
154	O=C(O)c1cc(Cl)ccc1Br
55 to 56	CN1CCN(C)c2cc(Br)ccc21
146	CCOC(=O)CC=C(c1ccc(OC)cc1)C(C)(C)C(=O)OCC

melting point [°C]	SMILES
193	O=C1C=C(Nc2ccccc2)C(=O)c2ccccc21
90 to 92.5	CCOC=C(C#N)S(=O)(=O)c1ccc2ccccc2c1
100 to 101	O=C(Cl)c1ccc2c(c1)OCCO2
> 140	CCOC(=O)c1c(-c2ccccc2)[nH]c2cc3[nH]c(-c4ccccc4)c(C(=O)OCC)c3cc12
84 to 90	ON=C(CBr)c1ccc(F)cc1
165 to 168	NNC(=O)c1ccc(Cl)c(Br)c1
102	S=C(Nc1ccccc1)c1ccccc1
143 to 147	CC(Oc1ccc(O)cc1)C(=O)O (stereo unspecified)
161 to 163	CNc1ccccc1C(N)=O
134 to 136	O=C1CCCN1c1ccc(C(F)(F)F)cc1
180	COc1ccc(/C(C(=O)c2ccccc2)=C2/C(=O)N(C(C)=O)c3ccccc32)cc1
< 20	Brc1cccc(Oc2ccc(Br)c(Br)c2)c1
59	O=C(c1cccc(F)c1)c1cccc(F)c1
206 to 207	COc1ccc(CCN2CCc3c([nH]c4ccccc34)C2=O)cc1OC
132 to 135	Nc1cccc(Oc2ccc(S(=O)(=O)c3ccc(Oc4cccc(N)c4)cc3)cc2)c1
47	CN(NC=O)c1ccccc1
70	CC1CSC(C=Cc2ccccc2[N+](=O)[O-])S1 (stereo unspecified)
100	Nc1cc(C(F)(F)F)ccc1[N+](=O)[O-]
59	CCOC(=O)C(C)(C)C1(c2ccc(OC)cc2)CCC(=O)O1 (stereo unspecified)
136 to 137	NC(=S)c1ccc(C(F)(F)F)cc1
127 to 131	COc1ccc(CCN2CC(C(=O)O)CC2=O)cc1OC (stereo unspecified)
205 to 215	O=C(O)c1cc(N(Cc2ccccc2O)Cc2cc(O)ccc2O)ccc1O
178	CC1=C(C(=O)OCC(C)C)C(c2ccc3c(c2)OCO3)NC(=O)N1 (stereo unspecified)
190 to 193	CCOC(=O)c1sc(SC)c2c1-c1ccccc1N(C)S2(=O)=O
150 to 151	CC(=O)c1ccc(NC(=O)CCl)cc1
